Two molecules from patent publication EP2601945A1 (Thomale, Jürgen, priority 2011, dated 2013) can be followed below.

“Also recorded” adds a separate entry of the source.

The test system of data set [1] is outer hair cells and stria vascularis marginal cells. In words: Electron microscopy of cochlear cell micromorphology. Type of data set: in vivo, mice. The settings on record: four times.
The subject of data set [2] is K-rasG12D -induced lung tumors. The experiment in a line: Tumor growth in the K-ras mouse model of NSCLC (H&E lung sections, Bioquant image analysis). The format is in vivo, mice. The settings on record: for tumor number: not statistically significant. From the text: (§1) Oncogenic mutations in the gene encoding the small GTPase K-ras are among the most frequently detected alterations in human lung cancer and approximately 30 % of all cases of human non-small cell lung cancer (NSCLC) carry such an activated K-ras allele with mutations predominantly located in codons 12, 13 or 61. Based on this observation a mouse model for NSCLC was recently established (Sweet-Cordero et al., 2004). The local activation of a silent transgenic K-rasG12D allele in these mice is achieved by intratracheal adenoviral transfection with the Cre recombinase (AdCre). The Cre recombinase cuts out a "stop" cassette and allows for expression of the oncogenic K-ras protein in transfected lung cells.
A cohort of tumor-bearing mice was randomly divided into three subgroups receiving different treatment regimens. Group one (mock treatment control) received i.p. injections once per week with PBS for 4 weeks. […] Mice were sacrificed 5 days after the last dose; lungs were dissected and prepared for paraffin sections. Following H&E staining for morphological structures, the percentage tumor burden, the number of tumors per lung and the average tumor size was determined microscopically (Figure 13 B-D, 14). […] For quantitative analysis the Bioquant image analysis software was used to blindly and randomly quantify the area of all lung tumors and the total lung surface area in 4 lung sections per mouse.

The subject of data set [3] is Pt-GG adducts in DNA of lung tumor cells. In words: ICA of Pt-GG adducts in primary lung tumor cells. Type of data set: in vivo, mice.
Text: as §1, with “cells. When the initiation is performed at the age of 8 weeks, mice are diagnosed 16 weeks later with lung tumors at 100 % penetrance. The morphology and molecular characteristics of the tumors are very similar to human NSCLC and they respond with regression to chemotherapy with cis-platin.” for “cells.”
Mice bearing K-rasG12D -induced lung tumors were divided into two groups for acute high dose and for chronic low dose treatment. Animals received mocktreatment with PBS or cis-platin alone or cis-platin plus treatment with DPH. […] All mice were sacrificed 24 hours after the last treatment and cochleae, kidneys and lungs were resected for analysis of DNA adduct accumulation.

For data set [4], the system named is human cancer cell lines established from tumors (lung, bladder, testis). The experiment in a line: Co-application of cis-platin and DPH to cancer cell lines: apoptosis by Annexin V staining and FACS analysis. The format is cell-based. The settings on record: cis-platin alone or in combination with DPH. A general note: Flow cytometry measures light scatter and fluorescence of single cells or particles in a stream.

The next data set concerns hearing capability. The experiment in a line: BAER hearing test after repetitive cis-platin with or without DPH, or DPH alone. The protocol:
Both groups received additional i.p. injections with saline solution (500 µl) in order to protect the mice from kidney injury. […] Like in the clinical BAER tests for humans, the hearing threshold was determined as the disappearance of wave V. This value was converted into percentage of hearing capability as compared to the untreated controls (dB to %). […] The mean value of the untreated mice was set as 100 %.

Another data set has as its system Kras/p53 deficient mice. The experiment in a line: Survival upon repetitive cis-platin treatment. The format is in vivo. The settings on record: repetitive cis-platin 9 mg/kg in combination with DPH 50 mg/kg versus cis-platin alone (Figure 16).
In a further data set the test system is Pt-GG adducts in DNA. In words: ICA of Pt-GG adducts in cochlear cells of XPA-/- versus wild type mice. Type of data set: in vivo. The protocol: Frozen tissue sections of the inner ear or kidneys on ImmunoSelect slides were fixed in methanol at -20°C for at least 2 hours or overnight and then rehydrated for 10 minutes in PBS, at room temperature. To provide better antibody penetration in the tissue structures the samples underwent alkaline permeabilisation of cytoplasmic and nuclear membranes for 5 minutes at 0°C, followed by washing in PBS at room temperature for 5 minutes. The proteolytic cleavage of cytoplasmic and nuclear proteins was performed in two steps. At first, a pre-warmed pepsin solution (60 µg /ml for cell culture or 100 µg/ml for tissue sections in PBS/HCl) was applied onto the tissue sections and incubated for 10 minutes at 37°C in a humidified chamber. The incubation with pepsin was followed by washing in PBS for 10 minutes at room temperature. […] The quantification of immuno- and DNA-fluorescence was performed by means of a microscope-coupled digital image analysis system ACAS 6.0 Cytometry Analysis System. Adduct levels in the nuclear DNA of individual cells were calculated by normalizing antibody-derived fluorescence signals to the corresponding DNA content of the same nucleus, and were expressed as arbitrary fluorescence units (AFUs). Data were assigned to specific cell types as determined by histochemistry. […]

Where [5] appears, read: cis-platin 7 mg/kg once per week for 4 weeks, DPH 57 mg/kg.
Where [6] appears, read: cis-platin in combination with DPH (57 mg/kg 30 minutes before each dose).
Where [7] appears, read: cis-platin alone (7 mg/kg once per week for 4 weeks).

For the molecule `CN(C)CCOC(c1ccccc1)c1ccccc1` [DPH, diphenhydramine], the “micromorphology of outer hair cells and marginal cells” value (shortened to “micromorphology”) in data set [1] (DPH alone 57 mg/kg every second day) is reported as “No signs of autophagy or necrosis”. The “micromorphology” value in data set [1] (cis-platin 5 mg/kg plus DPH 57 mg/kg every second day) was “much less frequent and properly shaped; also recorded: rare autophagosome-like structures”. For the same molecule, in data set [2] (setting [5]), the “average tumor size, cis-platin alone versus cis-platin plus inhibitor group” value is listed as “no difference” and the “mean tumor burden in the lung, cis-platin alone versus in combination with DPH” value is listed as “no significant difference”. In addition, in data set [2] (setting [6]), the “reduction of average tumor size” value is “about 50%” and the “reduction of tumor burden” value is recorded as “about 80%”. Further, the tumor number entry in data set [2] (cis-platin plus DPH versus PBS) is given as “reduced”. Further, in data set [3] (DPH 57 mg/kg 30 minutes prior to cis-platin, acute 10 mg/kg or chronic 4 x 5 mg/kg), the “reduction of Pt-GG levels in lung tumor cells by DPH co-treatment” value is “no reduction”. Also, the “effect on the induction of apoptosis” value in data set [4] was “no inhibitory effect”. For the same molecule, the “hearing ability throughout the experiment” value with hearing capability (DPH alone 57 mg/kg repetitively, no cis-platin) is listed as “did not show any difference”. In addition, the “hearing sensitivity 24 hours later” value in the data set with hearing capability (DPH alone, single dose 57 mg/kg, BAER repeated 24 hours later) is “regained their normal hearing sensitivity”. In addition, in the data set with hearing capability (cis-platin cumulated dose 20 mg/kg in combination with DPH 57 mg/kg 30 minutes before each dose), the hearing loss worked out at 20%. Further, the “mean hearing capability, percentage of untreated controls” value in the data set on hearing capability (cis-platin cumulated dose 40 mg/kg plus DPH 57 mg/kg before each dose) is on record as “about 70%”. Besides, in the data set on Kras/p53 deficient mice, the survival result is on record as “improved survival rates”.
Turning to `N.N.[Cl][Pt][Cl]` [cis-platin, cis-diaminedichloro-platinum(II)], the “micromorphology” value in data set [1] (cis-platin alone 5 mg/kg every second day) was “necrotic cell death”. In addition, the “adduct levels in inner ear cis-platin target cells, XPA -/- mice versus wild type littermates” value with Pt-GG adducts in DNA (cis-platin cumulated dose 3.5 mg/kg (Figure 7 B legend)) is given as “more than 3 times”. Further, the “levels of DNA damage in marginal cells, XPA-/- mice compared to wild type littermates” value with Pt-GG adducts in DNA (cis-platin cumulative dose 3.5 mg/kg (Figure 7 B)) is “about 2.7 fold”. Moreover, in data set [2] (setting [7]), the “reduction of average tumor size” value is given as “about 50%” and the “reduction of tumor burden” value is given as “about 80%”. Moreover, the tumor number entry in data set [2] (cis-platin alone versus PBS) was “reduced”. Moreover, the “adduct levels in lung tumor cells, repetitive treatment compared to single high dose treatment” value in data set [3] (cis-platin 4 x 5 mg/kg every second day versus 10 mg/kg once) is “about two-fold higher”. In the data set with hearing capability (cis-platin alone 5 mg/kg every second day, cumulated dose 20 mg/kg, BAER 24 h after last treatment), the “hearing capability, percentage of controls” value is “about 50%”. In addition, the “reduction of hearing capacity (BAER)” value with hearing capability (cis-platin treatment alone, mice (description)) is “about 45%”.
